From ChEMBL document CHEMBL1201862, “PubChem BioAssay data set” (2004) come the findings set out here.

Each structure is given as a SMILES string.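 96-well plates; 48 h exposure; 5 concentrations. Endpoints by linear interpolation between flanking doses. Not reached: highest tested concentration assigned. The concentration for 50% growth inhibition is given as GI50.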 The source made the active and inactive calls. Rule as the data show it: active = GI50 up to about 1.1 µM and inactive = higher. Where only a bound is given, the exact number is not on record here.

Assay in all cases: DTP human tumour cell line panel, 48 h
Test [1] relates to NCI-H522.
Test [2] concerns MDA-N.
Test [3] has as its system IGROV-1.
The test system of test [4] is HCT-15.
Test [5] concerns KM12.
Test [6] has as its system SR.
Test [7] relates to NCI-H460.
Test [8] concerns A549.
Test [9] relates to SF-539.
In test [10] the test system is U-251.
In test [11] the test system is MDA-MB-435.
Test [12] deals with UACC-257.
Test [13] relates to 786-0.
Test [14] relates to HCT-116.
Test [15] concerns HOP-62.
Test [16] deals with SK-MEL-28.
The test system of test [17] is OVCAR-8.
Test [18] deals with HT-29.
Test [19] has as its system A498.

The term GI50 denotes the concentration that inhibits growth by half. `COc1cccc(-c2cc(O)c3cc(N4CCOCC4)ccc3n2)c1`: the GI50 in test [1] is 0.0158 µM (active); in test [2], 0.0069 µM (active); in test [3] it was 0.0575 µM (active); in test [4], 0.0383 µM; in [5] it was 0.0424 µM (active); in test [6] it was 0.0158 µM (active). Moreover, the 50% growth inhibitory concentration (GI50) in test [7] was 0.177 µM (active); in test [8] it was 0.113 µM (active); in test [9], 0.0217 µM (active); in test [10], 0.037 µM (active); in [11], 0.00834 µM (active); in [12] it was 0.0559 µM (active). Besides, the concentration for 50% growth inhibition (GI50) in [13] was 0.0411 µM (active); in test [14], 0.0221 µM (active); in [15], 0.0586 µM (active); in [16] it was 0.0748 µM (active); in test [17] it was 0.0375 µM (active).
As for `C=CCc1cc(-c2n[nH]c(=S)[nH]2)ccc1N/N=N/c1ccc(C(=O)O)cc1`, the GI50 in test [1] is 34.1 µM (inactive); in [2], 66.2 µM (inactive); in [3], 83 µM (inactive); in test [4], more than 100 µM; in test [5] it was 40.2 µM (inactive); in test [6], 45.9 µM (inactive). Also, the GI50 in test [8] was > 100 µM (inactive); in test [18] it was > 100 µM (inactive); in test [10] it was > 100 µM (inactive); in test [11], 44.8 µM (inactive); in test [19] it was > 100 µM (inactive); in test [12], 76.9 µM (inactive). The GI50 in [13] was > 100 µM (inactive); in [14] it was > 100 µM (inactive); in test [15], 81.3 µM (inactive); in [16], > 100 µM (inactive); in test [17] it was 38.5 µM (inactive).
With `Cc1nn(C(=O)c2ccncc2)c2c1C(c1ccc(Cl)cc1)SC(=N)N2` (stereo not given), the GI50 is > 10 µM (inactive) in test [2]; > 10 µM (inactive) in test [3]; more than 10 µM in test [4]; > 10 µM (inactive) in test [5]; > 10 µM (inactive) in test [6]; > 10 µM (inactive) in test [7]. Further, the GI50 in [8], in test [18], in [9], in test [11], in [12] and in [13] was > 10 µM (inactive) throughout. For the same compound, the GI50 in [14], in test [15], in test [16] and in test [17] was > 10 µM (inactive) throughout.
Consider `COCn1cc(C2=C(C)C(=O)C(C)=C(C)C2=O)cn1`, for which the GI50 was 48.6 µM (inactive) in test [2]; > 100 µM (inactive) in test [3]; more than 100 µM in [4]; > 100 µM (inactive) in test [5]; 39.4 µM (inactive) in [6]; > 100 µM (inactive) in [7]. In addition, the GI50 in test [8] is > 100 µM (inactive); in [18] it was > 100 µM (inactive); in test [9] it was > 100 µM (inactive); in [11] it was 19.6 µM (inactive); in test [19], > 100 µM (inactive); in [12], 85.5 µM (inactive). The GI50 in [13] is 18 µM (inactive); in [14], 20 µM (inactive); in [15], > 100 µM (inactive); in [16] it was > 100 µM (inactive); in test [17] it was 21.1 µM (inactive).
As for `COC(=O)/C=C/c1cc(OC)c2oc(-c3ccc(OC)c(OC)c3)c(C(=O)OC)c2c1`, the GI50 was > 100 µM (inactive) in test [2]; > 100 µM (inactive) in test [3]; more than 100 µM in [4]; > 100 µM (inactive) in test [5]; > 100 µM (inactive) in test [6]; > 100 µM (inactive) in test [7]. Further, the GI50 in test [8], in test [18], in [10], in test [11], in [19] and in test [12] was > 100 µM (inactive) in each case. For the same compound, the GI50 in [13], in test [16] and in test [17] was > 100 µM (inactive) each time.
As for `CCOC(=O)c1nnn(CCCCO)c1C(=O)OCC`, the GI50 in [2] is > 100 µM (inactive); in [3], > 100 µM (inactive); in [4], more than 100 µM; in test [5], > 100 µM (inactive); in test [6] it was > 100 µM (inactive); in test [7], > 100 µM (inactive). The GI50 in test [8], in test [18], in test [9], in test [10], in test [11] and in test [12] was > 100 µM (inactive) each time. For the same compound, the GI50 in test [13], in test [14], in test [15], in test [16] and in test [17] was > 100 µM (inactive) each time.
As for `Cc1c(NC(=O)CSC(=S)N2CCN(Cc3ccccc3)CC2)c(=O)n(-c2ccccc2)n1C`, the GI50 in test [1] is > 100 µM (inactive); in [2], > 100 µM (inactive); in test [3], > 100 µM (inactive); in test [4] it was more than 100 µM; in test [5] it was > 100 µM (inactive); in test [6] it was > 100 µM (inactive). Moreover, the GI50 in test [7], in test [8], in test [18], in [9], in [10] and in test [11] was > 100 µM (inactive) each time. The GI50 in test [12], in test [13], in [14], in test [15], in test [16] and in test [17] was > 100 µM (inactive) in each case.
In the case of `O=C(O)c1ccc(Nc2cnc3cc(C(F)(F)F)ccc3n2)cc1`, the GI50 in test [1] was 25.8 µM (inactive); in test [2] it was 53.8 µM (inactive); in [3], 25.3 µM (inactive); in test [4] it was 25.6 µM; in [5], 37.1 µM (inactive); in [6] it was 56.1 µM (inactive). Moreover, the GI50 in test [7] is 36.1 µM (inactive); in test [8], 42 µM (inactive); in [18] it was 63.2 µM (inactive); in test [9], 78 µM (inactive); in test [10] it was 48.2 µM (inactive); in test [11], 43.5 µM (inactive). The GI50 in [12] is 43.7 µM (inactive); in test [13], 67.6 µM (inactive); in [14], 54.7 µM (inactive); in test [15], 90.2 µM (inactive); in [16], 42.4 µM (inactive); in test [17], 52.1 µM (inactive).
As to `COc1ccc(OC)c(CC2CCc3nc(N)nc(N)c3C2)c1` (stereo not given), the GI50 in [1] is 0.774 µM (active); in test [2] it was < 0.01 µM (active); in test [3] it was < 0.0453 µM (active); in test [4] it was less than 0.0435 µM; in test [5] it was 1.56 µM (inactive); in [7], < 0.01 µM (active). For the same compound, the GI50 in [8] is < 0.01 µM (active); in test [18], 6.68 µM (inactive); in test [9] it was 0.275 µM (active); in test [10], > 49.3 µM (inactive); in test [11] it was 12.6 µM (inactive); in test [19] it was 23.1 µM (inactive). The GI50 in test [12] was 5.78 µM (inactive); in test [13] it was 0.0565 µM (active); in test [14], < 0.01 µM (active); in [15], 4.27 µM (inactive); in test [16], 18.8 µM (inactive); in test [17] it was 20.3 µM (inactive).
In the case of `CC(C)(C)OC(=O)N/N=C(/N)Cc1ccccc1`, the GI50 in test [1] is > 100 µM (inactive); in test [2] it was > 100 µM (inactive); in [3] it was > 100 µM (inactive); in test [4], more than 100 µM; in test [5], > 100 µM (inactive); in [6], > 100 µM (inactive). Further, the GI50 in [8], in [18], in test [9], in [10], in test [11] and in [19] was > 100 µM (inactive) each time. The GI50 in [12], in test [13], in [14], in test [15], in [16] and in test [17] was > 100 µM (inactive) throughout.
Regarding `CNC1=CC(=O)C2=C(C1=O)[C@H]1CC[C@]3(C)C(=O)CC[C@H]3[C@@H]1CC2`, the GI50 was 8.17 µM (inactive) in [2]; 5.43 µM (inactive) in test [3]; 12.4 µM in [4]; 7.43 µM (inactive) in test [5]; 14.1 µM (inactive) in test [6]; 18.5 µM (inactive) in test [7]. Also, the GI50 in test [8] was 19.8 µM (inactive); in test [9], 18.4 µM (inactive); in test [10] it was 21.8 µM (inactive); in test [11], 5.66 µM (inactive); in [19], 22.2 µM (inactive); in [12], 13.2 µM (inactive). Moreover, the GI50 in test [13] is 17.3 µM (inactive); in test [14], 16.9 µM (inactive); in test [15], 15.2 µM (inactive); in [16], 18.2 µM (inactive); in test [17] it was 9.71 µM (inactive).
Take `N#CC1=C(N2CCOCC2)CCC1`: the GI50 in [1] was > 100 µM (inactive); in test [2] it was 52.6 µM (inactive); in [3] it was > 100 µM (inactive); in test [4] it was more than 100 µM; in [5], > 100 µM (inactive); in test [6] it was > 100 µM (inactive). In addition, the GI50 in test [8], in test [18], in test [9], in test [10], in test [11] and in test [19] was > 100 µM (inactive) throughout. The GI50 in test [12], in test [13], in test [14], in test [15] and in [17] was > 100 µM (inactive) throughout.
